Several values for one entry are separate records, joined by “and”; a condition that tells them apart may be missing. Equal values may be shown once. Read-outs that look alike come from different tables or passages of the source.
System: C. difficile
Type: cell-based
Conditions: 37° C. 24 h; for concentration added at which a mass of bacteria and the surrounding medium exhibited yellow color / concentration added at which a mass of bacteria exhibited yellow color / concentration added at which a mass of bacteria was found: added to medium of Table 1

| Structure (SMILES) | concentration added at which a mass of bacteria and the surrounding medium exhibited yellow color | concentration added at which a mass of bacteria exhibited yellow color [g/L] | concentration added at which a mass of bacteria was found [g/L] | Yellow coloration degree (ascorbic acid added 0.075 g/L) | Yellow coloration degree (ascorbic acid added 0.16 g/L) | Yellow coloration degree (ascorbic acid added 0.32 g/L) | Yellow coloration degree (ascorbic acid added 0.64 g/L) | Yellow coloration degree (ascorbic acid added 1.8 g/L) | Yellow coloration degree (ascorbic acid added 2.7 g/L) | Yellow coloration degree (ascorbic acid added 3.6 g/L) | Yellow coloration degree (ascorbic acid added 4.5 g/L) | Yellow coloration degree (dithiothreitol added 0.075 g/L) | Yellow coloration degree (dithiothreitol added 0.16 g/L) | Yellow coloration degree (dithiothreitol added 0.32 g/L) | Yellow coloration degree (dithiothreitol added 0.60 g/L) | Yellow coloration degree (dithiothreitol added 0.90 g/L) | Yellow coloration degree (dithiothreitol added 1.2 g/L) | Yellow coloration degree (dithiothreitol added 1.5 g/L) | Yellow coloration degree (dithiothreitol added 1.8 g/L) |
| --- | --- | --- | --- | --- | --- | --- | --- | --- | --- | --- | --- | --- | --- | --- | --- | --- | --- | --- | --- |
| O=C1O[C@H]([C@@H](O)CO)C(O)=C1O [ascorbic acid] | 0.32 to 1.8 g/L | 0.16 to 2.7 | 0.075 to 3.6 | 1 | 2 | 3 | 3 | 3 | 2 | 1 | 0 |  |  |  |  |  |  |  |  |
| O[C@H](CS)[C@H](O)CS (racemic) [dithiothreitol] | 0.6 g/L and 0.9 g/L | 0.16 to 1.2 | 0.075 to 1.5 |  |  |  |  |  |  |  |  | 1 | 2 | 2 | 3 | 3 | 2 | 1 | 0 |

Source: patent US10900014B2, “Long-term storage medium for culturing obligate anaerobic bacteria or microaerobic bacteria under aerobic environment, and method of detecting obligate anaerobic bacteria or microaerobic bacteria using said medium” (Kanto Kagaku Kabushiki Kaisha, priority 2015, dated 2021)
